According to patent US8188126B2, “Imidazolic compounds and use thereof as alpha-2 adrenergic receptors” (Pierre Fabre Medicament, priority 2002, dated 2012):

What was measured:
[1] = tested on: scopolamine-induced memory deficiency; assay: Scopolamine-induced memory deficiency test (passive avoidance); assay type: in vivo; conditions: rats
Description: Scopolamine-Induced Memory Deficiency Test. Scopolamine has amnesiac properties in animals and humans. In this way, its administration to healthy humans induces certain symptoms similar to those observed in Alzheimer's disease. Therefore, the scopolamine-induced memory deficiency is used as an experimental pharmacological model of the memory disorders observed in the course of this condition. Scopolamine reduces acquisition, memorisation and recall capacities in a passive avoidance test in rats. It consists of measuring the hesitancy, after learning, shown by an animal to enter a dark compartment in which it receives a low-intensity electric shock. The administration of scopolamine does away with this hesitancy and the compounds studied inhibit the effect of scopolamine. The experimental protocol used is described in Psychopharmacol. 1992, 106, 26-30.

[2] = molecular target: T1, human alpha-2A adrenergic receptors (Homo sapiens, UniProt P08913); assay: Measurement of alpha-2 adrenergic receptor activation (GTPγS response on membrane preparations); assay type: biochemical; conditions: expressed with reference to (−)-adrenaline (maximum stimulation = +100), read-out: Intrinsic activity % stimulated
T1 construct: expressed in transfected cells; host or cells: membrane preparations
T1 sequence (P08913 1-465): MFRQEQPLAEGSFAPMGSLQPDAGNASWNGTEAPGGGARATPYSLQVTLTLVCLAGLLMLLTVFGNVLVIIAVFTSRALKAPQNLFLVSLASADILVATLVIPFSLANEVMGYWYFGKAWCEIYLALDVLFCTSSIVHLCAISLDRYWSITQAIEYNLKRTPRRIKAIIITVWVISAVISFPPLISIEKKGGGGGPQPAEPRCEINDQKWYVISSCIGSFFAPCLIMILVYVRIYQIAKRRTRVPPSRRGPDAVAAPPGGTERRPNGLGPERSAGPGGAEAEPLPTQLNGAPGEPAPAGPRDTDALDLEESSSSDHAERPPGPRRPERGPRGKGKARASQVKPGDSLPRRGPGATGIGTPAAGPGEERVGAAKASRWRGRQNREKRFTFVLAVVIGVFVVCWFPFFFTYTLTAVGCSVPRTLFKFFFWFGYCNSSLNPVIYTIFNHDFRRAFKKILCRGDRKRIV
Experimental: Measurement of Alpha-2 Adrenergic Receptor Activation
The GTPγS responses are produced on membrane preparations in 20 mM HEPES (pH=7.4) with 30 [mu]M of GDP, 100 mM of NaCl, 3 mM of MgCl2 and 0.2 mM of ascorbic acid. The maximum GTPγS stimulation is determined in the presence of […] of (−)-adrenaline and calculated with respect to the basal GTPγS response. The results are expressed with reference to adrenaline or RX 811059. Under these conditions, the compounds according to the invention are distinguished from the majority of the compounds according to the prior art in that they behave more like reverse agonists on human alpha-2A adrenergic receptors (see table above).

human alpha-2A receptor = molecular target: T2, human alpha-2A receptor (Homo sapiens, UniProt P08913); assay: Bonds with alpha-2 adrenergic receptors ([3H]RX 821002 binding, C6 cell membranes); conditions: 2 nM [3H]RX 821002, C6 cell membranes expressing human alpha-2A receptor, 30 min at 25° C.; read-out: Affinity (pKi) Alpha-2A (converted)
T2 construct: expressed in transfected cells; host or cells: C6 cells (rat glioma, by own knowledge) continuously expressing the human receptor; membranes
T2 sequence (P08913 1-465): T1 sequence (P08913 1-465)
Experimental: Bonds with Alpha-2 Adrenergic Receptors
The C6 cell membranes continuously expressing the human alpha-2A receptor are prepared in Tris-HCl (pH=7.6). The bond tests are conducted with 2 nM [3H]RX 821002. The incubation medium consists of 0.4 ml of cell membranes (10 μg of proteins), 0.05 ml of radioligand and 0.05 ml of test product or phentolamine (10 μM) to determine the non-specific bond. The reaction is stopped after 30 minutes of incubation at 25° C. by adding 3 ml of Tris-HCl, 50 mM (pH=7.6), cold, followed by filtration on Whatman filters, GF/B using a Brandel. The Ki values are calculated according to the equation Ki=IC50/(1+C/Kd) where C is the concentration and Kd the dissociation constant, pKi=−log Ki. Under these conditions, the compounds according to the invention appear to have a strong affinity for human alpha-2A adrenergic subtype receptors.

rats = assay: Morris water maze test (spatial memory, probe trial); assay type: in vivo; conditions: for Effect on spatial memory processes (in words): i.p. after training sessions of days 1 and 2; for Increase in spatial memory performance: probe trial on day 3 after two training days
Description: Morris Water Maze—Basic Principles of the Test
In the animal test paradigm, rats are placed into a circular pool containing water and are required to find an escape platform just beneath the surface of the water and therefore invisible to the animal. The performances are dependent on the number of training days.
Morris Water Maze—Detailed Protocol
The water maze test was adapted from the original protocol of Morris (1981). The test apparatus consisted of a circular fibreglass tank (130 cm in diameter, 50 cm deep). The pool was filled to a height of 30 cm with water at room temperature (21-22° C.). The pool was divided into four virtual quadrants (Q1, Q2, Q3 and Q4) of equal surface area. A transparent escape platform made of Plexiglas (10 cm in diameter, 29 cm high) was placed in a fixed location in the tank, 1 cm below the water surface. […] Many extra-maze cues surrounded the maze and were available for the rats to use in locating the escape platform. On the training trials, the platform remained in a constant location in the centre of one quadrant (Q4) equidistant from the centre and the edge of the pool. Each rat received three trials/day for 1, 2, 3 or 4 days. Each training trial involved placing the rat into the pool facing the wall at one of the 3 quadrants Q1, Q2 and Q3. A different starting point was randomly used on each trial. The rats were allowed to swim freely until they found the escape platform. The latency to find the hidden platform was recorded and used as a measure of acquisition of the task. […] The intertrial interval was 20 sec during which the rat remained on the platform. Twenty hours after the last training trial, the platform was removed from the pool, the rats were allowed to swim for 60 sec in the pool and the time spent in the target quadrant Q4 (the quadrant in which the platform was during training) was recorded. The percent time spent in the previous training quadrant Q4 was used as an index of memory. The higher the percentage, the better the memory was considered to be (Yavich L., Sirviö J., Haapalinna A., Puumala T., Koivisto E., Heinonen E., Riekkinen P. Jr. (1996) The systemic administration of tacrine or selegeline facilitate spatial learning in aged Fisher 344 rats. J Neural Transm 103: 619-626).
Pharmacological Treatment and Statistical Analysis
Rats received two training days and were tested in a probe trial, without platform, on the third day. […] Results were expressed as the mean±standard error of the mean (SEM) of performance (latency to find the platform and percentage time spent in target quadrant) and were analysed by one-way analysis of variance, with drug treatment as the factor, followed by a 2-tailed Student t-test (GB-STAT, Friedman P. (1991) GB-STAT: computer aided statistics & graphics, Ver 3.0. Dynamic Microsystems, Inc., Silver Spring). In the probe trial, without platform, results were also compared to chance performance (25%) by a 1-sample Student t-test (GB-STAT, Friedman, 1991). Results obtained with compounds I-1 (Example 4), (−)-1-1 (Example 6), (+)-1-1 (Example 5) and 1-2 (Example 7): […]

SMILES	Scopolamine memory deficiency % aplitude of effect ([1]; dose 0.63 mg/kg i.p.)	Emax [2] [%]	Ki (human alpha-2A receptor) [nM]	Scopolamine memory deficiency % aplitude of effect ([1]; dose 2.5 mg/kg i.p.)	Effect on spatial memory processes (in words) (rats)	Increase in spatial memory performance (rats; 0.63 and 2.5 mg/kg i.p. immediately after training sessions)	Increase in spatial memory performance (rats; 2.5 mg/kg i.p. immediately after training sessions) [%]	Increase in spatial memory performance (rats; 2.54 mg/kg i.p. immediately after training sessions) [%]	Increase in spatial memory performance (rats; 0.16 mg/kg i.p. immediately after training sessions) [%]	Scopolamine memory deficiency % aplitude of effect ([1]; dose 0.16 mg/kg i.p.)
Fc1ccc2c(c1)C1(CC1)C1(c3c[nH]cn3)CC21 (stereo not drawn) [Compound 1-5, 4-(4-fluoro-6-spiro-t-cyclopropane-1a,6-dihydro-1H-cyclopropa[a]inden-6a-yl)-1H-imidazole]	+241%	-10	0.316							
c1ccc2c(c1)C1CC1(c1cnc[nH]1)C21CC1 (single isomer, unassigned; (-)) [(-)-1-1, (−)-4-(6-spiro-1′-cyclopropane-1a,6-dihydro-1H-cyclopropa[a]inden-6a-yl)-1H-imidazole]		37	2.51	+138%	promnesic effect	up to 48%				
c1ccc2c(c1)C1CC1(c1cnc[nH]1)C21CC1 (stereo not drawn) [Compound 1-1, 4-(6-spiro-1′-cyclopropane-1a,6-dihydro-1H-cyclopropa[a]inden-6a-yl)-1H-imidazole]		14	0.316	+122%	promnesic effect		46			
C[C@@H]1[C@H]2c3ccccc3C3(CC3)[C@@]12c1c[nH]cn1 (relative stereo) [Compound 1-2, 4-(1-exo-methyl-6-spiro-1′-cyclopropane-1a,6-dihydro-1H-cyclopropa[a]inden-6a-yl)-1H-imidazole]	+201%	7	7.94		promnesic effect			42		
c1ccc2c(c1)C1CC1(c1c[nH]cn1)C21CC1 (single isomer, unassigned; (+)) [(+)-1-1, (+)-4-(6-spiro-1′-cyclopropane-1a,6-dihydro-1H-cyclopropa[a]inden-6a-yl)-1H-imidazole]					promnesic effect				17	
COc1cc2c(cc1OC)C(=O)C(CC1CCN(Cc3ccccc3)CC1)C2 (stereo not drawn) [Donepezil, reference compound]										+67%
